From patent publication US20200383985A1, “Inhibitors of Protease Activated Receptor-2” (Endosome Therapeutics, Inc., priority 2017, published 2020)
Entries after “also recorded” stand apart in the source; their conditions may differ.

Columns and labels:
KNRK cells = assay: ATP-stimulated IP1 accumulation in KNRK cells; assay type: cell-based; conditions: ATP (10 μM)
Method: KNRK-hPAR2, KNRK or HT-29 cells were seeded at a density of 50×10^3 cells/well in a clear poly-d-lysine coated 96 well tissue culture plate. Following 24 h incubation at 37° C. and 5% CO2, media was removed and replaced with 80 μl IP1 stimulation buffer (10 mM HEPES, 1 mM CaCl2, 0.5 mM MgCl2, 4.2 mM KCl, 146 mM NaCl, 5.5 mM glucose, 50 mM LiCl). Following stimulation buffer addition, the wells received 10 μl of 10× antagonists or DMSO vehicle. All plates were further incubated at 37° C., 5% CO2 for 30 min. 10 μl of 2F or ATP was added to the plates and further incubated for 40 min. Following incubation, stimulation buffer was quickly removed by aspiration and replaced with 25 μl lysis buffer (IP-One HTRF® assay kit, Cisbio). Following incubation of the lysates at 37° C., 5% CO2 for 10′, 10 μl lysate was transferred to a 384-well OptiPlate (PerkinElmer) and detected using the IP-One HTRF® assay kit (Cisbio).
Compounds of the invention (added at 10×concentrations in a 10 μL volume) were incubated for 30 min prior to the addition of 10 μM ATP or 100 nM or 300 nM PAR2 agonist (2F; EC80, added at 10×concentrations in a 10 μL volume) and then further incubated for 40 min. After lysis, the inositol phosphate 1 was quantified with IP-One HTRF® assay kit, Cisbio. The data was analysed with Prism, GraphPad to calculate the IC50 values, shown below in Table 1. […]

mice [1] = assay: Visceromotor response (VMR) to colorectal distension (CRD); assay type: in vivo, mouse; conditions: 30 mg/kg, 100 μL enema into the colon, 30 min before the protease mixture
Method: (§1) Noxious colorectal distension (CRD) triggers the visceromotor response (VMR), a nociceptive brainstem reflex consisting of contraction of abdominal muscles, which can be monitored by electromyography. This approach allows assessment of visceral sensitivity in awake mice (Castro, J. et al., Br. J. Pharmacol. 2017, 175(12): 2384-2398). To examine protease-induced hy-persensitivity, a protease mixture (10 nM trypsin+100 nM NE+100 nM CS) or vehicle (saline) (100 μL) was instilled into the colon (enema) of healthy mice. After 15 min, the VMR was measured in response to graded CRD (20-80 mm Hg) with a barostat balloon. In vehicle-treated mice, CRD induced a graded VMR (FIG. 9I). […] Because alterations in the compliance of the colon can alter VMR to CRD, the pressure/volume relationship was measured at all distending pressures. Compliance of the colon was unaffected by the protease mixture or I-343 (FIGS. 21E and F). […]
(§2) Electromyography (EMG) of abdominal muscles was used to monitor VMR to CRD (Eichel, K. et al., Nat. Cell Biol. 2016, 18(3): 303-310). […] The EMG signal was recorded (NL100AK headstage), amplified (NL104), filtered (NL 125/126, Neurolog, Digitimer Ltd, bandpass 50-5000 Hz), and digitized (CED 1401, Cambridge Electronic Design) for off-line analysis using Spike2 (Cambridge Electronic Design). […]

mice [2] = assay: Colonic compliance in awake mice; assay type: in vivo, mouse; conditions: awake healthy mice
Method: as §1, §2

- compliance of the colon (pressure/volume relationship) (mice [2]): unaffected; also recorded: unchanged
Compound: Cc1nc(C(=O)N2CCN(C(=O)c3cn4nc(-c5ccc(F)cc5)cc(C(C)(C)C)c4n3)C(C)(C)C2)n[nH]1 [Compound I-343, (8-(tert-butyl)-6-(4-fluorophenyl)imidazo[1,2-b]pyridazin-2-yl)(2,2-dimethyl-4-(5-methyl-1H-1,2,4-triazole-3-carbonyl)piperazin-1-yl)methanone]
- ATP-stimulated IP1 (KNRK cells): did not affect
- protease mixture-amplified VMR to CRD (mice [1]): abolished the response
